In brackets after ≈: the same amount, converted by molar mass. One block for each compound: values may come before it.
What was measured:
[1] = Solubility in aqueous solutions (Table 3); type: physicochemical; settings: aqueous solution
Description: The skilled person understands that the pH of the gastrointestinal tract changes along its length. […] For more detail see, for example, Measurement of gastrointestinal pH profiles in normal ambulant human subjects, Gut. […] Improved solubility is expected to result in improved absorption, and therefore improved oral bioavailability.
In an embodiment prodrugs of the invention are administered intravenously. High prodrug solubility is advantageous in order to reduce the volume of solution administered to the patient, and to reduce the risk of damage to the circulatory system. Solubility of >10 mg/mL is preferred.

[2] = Pharmacokinetics: exposure of tonabersat in plasma after oral or intravenous dosing of prodrugs to rats; type: in vivo; settings: fasted male Sprague Dawley rats; for % exposure of tonabersat after dosing the prodrugs of the invention via: Intravenous dosing (iv): compared to equimolar amount of tonabersat (0.78 mg/kg intravenous dosing); for % exposure of tonabersat after dosing the prodrugs of the invention via: Oral dosing (po): compared to equimolar amount of tonabersat (5.00 mg/kg oral dosing)
Description: Example Prodrugs of the claimed invention were dosed either intravenously or orally to fasted male Sprague Dawley rats. The rats underwent surgery for jugular vein cannulation 48 h prior to dosing. Following dosing, 0.25 mL blood samples were taken via the cannulae at 0, 5, 10, 20, 30, 45, 60, 120, 240 & 360 min in EDTA coated tubes. Tubes were spun at 13,000 rpm for 4 min and 100 ul of supernatant taken immediately and stored at −80° C. prior to analysis. Plasma samples were analysed by LC-MS/MS following extraction by protein precipitation, and levels of parent prodrug and tonabersat were measured by MRM (Multiple Reaction Monitoring) analysis against an extracted calibration curve of plasma samples spiked with the Example prodrug and tonabersat.
The exposure of tonabersat in plasma following dosing of the prodrugs of the invention was compared directly to the exposure observed following dosing of an equimolar amount of tonabersat under analogous assay conditions (5.00 mg/kg oral dosing or 0.78 mg/kg intravenous dosing). In an embodiment prodrugs of the present invention have >10% exposure of tonabersat obtained following either oral or intravenous dosing of the prodrug to a human or animal subject, compared to the exposure obtained from dosing an equimolar amount of tonabersat itself. In an embodiment the exposure of tonabersat following dosing of the prodrugs is >20%, or >30%, or >40%, or >50%, or preferably >70% compared to the exposure obtained from dosing an equimolar amount of tonabersat itself.

hERG K+ channel = molecular target: T1, hERG K+ channel (Homo sapiens, UniProt Q12809); assay: hERG assay, IonWorks patch clamp electrophysiology; type: cell-based; settings: human, pH 7.3; 11 uM; Chinese Hamster Lung cell line stably expressing hERG
T1 construct: a Chinese Hamster Lung cell line stably expressing the full length hERG channel; expressed in transfected cells; host or cells: Chinese Hamster Lung cell line
Description: Compounds of the invention were tested for inhibition of the human ether a go-go related gene (hERG) K^+ channel using IonWorks patch clamp electrophysiology. 8 Point concentration-response curves were generated on two occasions using 3-fold serial dilutions from the maximum assay concentration (33 uM). Electrophysiological recordings were made from a Chinese Hamster Lung cell line stably expressing the full length hERG channel. Single cell ion currents were measured in the perforated patch clamp configuration (100 ug/mL amphoterocin) at room temperature using an IonWorks Quattro instrument. The internal solution contained 140 mM KCl, 1 mM MgCl2, 1 mM EGTA and 20 mM HEPES and was buffered to pH 7.3. The external solution contained 138 mM NaCl, 2.7 mM KCl, 0.9 mM CaCl2, 0.5 mM MgCl2, 8 mM Na2HPO4 and 1.5 mM KH2PO4, and was buffered to pH 7.3. Cells were clamped at a holding potential of […] for 30 s and then stepped to +40 mV for 1 s. This was followed by a hyperpolarising step of 1 s to […] to evoke the hERG tail current. This sequence was repeated 5 times at a frequency of 0.25 Hz. Currents were measured from the tail step at the 5th pulse, and referenced to the holding current. Compounds were incubated for 6-7 min prior to a second measurement of the hERG signal using an identical pulse train. A minimum of 17 cells were required for each pIC50 curve fit. A control compound (quinidine) was used.

T1 sequence (Q12809 whole entry): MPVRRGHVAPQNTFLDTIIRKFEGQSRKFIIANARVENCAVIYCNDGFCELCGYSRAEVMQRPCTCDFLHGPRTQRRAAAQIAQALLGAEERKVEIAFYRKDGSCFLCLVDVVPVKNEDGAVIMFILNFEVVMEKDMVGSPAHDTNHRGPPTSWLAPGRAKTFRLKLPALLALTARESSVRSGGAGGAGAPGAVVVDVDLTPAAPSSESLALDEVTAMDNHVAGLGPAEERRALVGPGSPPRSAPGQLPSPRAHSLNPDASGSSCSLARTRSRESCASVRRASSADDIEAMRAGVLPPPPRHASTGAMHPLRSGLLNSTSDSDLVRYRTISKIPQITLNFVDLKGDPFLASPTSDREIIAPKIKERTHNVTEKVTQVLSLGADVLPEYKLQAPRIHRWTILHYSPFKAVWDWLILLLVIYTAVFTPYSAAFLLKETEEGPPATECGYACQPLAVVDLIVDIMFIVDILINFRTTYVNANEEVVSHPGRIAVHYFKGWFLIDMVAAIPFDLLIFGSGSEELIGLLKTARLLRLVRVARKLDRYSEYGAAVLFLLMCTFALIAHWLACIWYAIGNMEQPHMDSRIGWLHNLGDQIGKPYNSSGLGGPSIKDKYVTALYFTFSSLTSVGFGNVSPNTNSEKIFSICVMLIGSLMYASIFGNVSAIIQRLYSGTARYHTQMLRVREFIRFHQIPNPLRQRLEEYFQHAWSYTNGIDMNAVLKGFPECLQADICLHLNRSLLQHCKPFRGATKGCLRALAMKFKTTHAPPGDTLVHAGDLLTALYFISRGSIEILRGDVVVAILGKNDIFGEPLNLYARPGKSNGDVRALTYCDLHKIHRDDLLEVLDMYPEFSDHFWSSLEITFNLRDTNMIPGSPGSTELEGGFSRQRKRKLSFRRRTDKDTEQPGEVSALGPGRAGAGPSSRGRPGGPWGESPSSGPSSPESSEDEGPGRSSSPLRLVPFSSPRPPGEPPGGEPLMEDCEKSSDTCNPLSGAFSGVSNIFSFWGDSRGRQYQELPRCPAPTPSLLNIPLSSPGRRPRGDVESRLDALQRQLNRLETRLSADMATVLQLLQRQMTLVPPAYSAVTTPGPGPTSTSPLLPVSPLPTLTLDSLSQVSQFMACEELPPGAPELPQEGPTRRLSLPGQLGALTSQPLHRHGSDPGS

SMILES: CC(=O)c1ccc2c(c1)[C@H](NC(=O)c1ccc(F)c(Cl)c1)[C@H](OC(=O)OC[C@H](N)C(=O)O)C(C)(C)O2.Cl [Example 5, (2S)-3-[({[(3S,4S)-6-Acetyl-4-[(3-chloro-4-fluorobenzene)amido]-2,2-dimethyl-3,4-dihydro-2H-1-benzopyran-3-yl]oxy}carbonyl)oxy]-2-aminopropanoic acid hydrochloride]
% exposure of tonabersat after dosing the prodrugs of the invention via: Intravenous dosing (iv) [2]: 37%
% exposure of tonabersat after dosing the prodrugs of the invention via: Oral dosing (po) [2]: 39%

SMILES: CC(=O)c1ccc2c(c1)[C@H](NC(=O)c1ccc(F)c(Cl)c1)[C@H](OC(=O)[C@@H](NC(=O)CN)C(C)C)C(C)(C)O2.Cl [Example 16, (3S,4S)-6-Acetyl-4-[(3-chloro-4-fluorobenzene)amido]-2,2-dimethyl-3,4-dihydro-2H-1-benzopyran-3-yl (2S)-2-(2-aminoacetamido)-3-methylbutanoate hydrochloride]
solubility ([1]; pH 4.4, aqueous buffer): 1 mg/mL

SMILES: CC(=O)c1ccc2c(c1)[C@H](NC(=O)c1ccc(F)c(Cl)c1)[C@H](OC(=O)CNC(=O)[C@@H](N)CC(C)C)C(C)(C)O2.Cl [Example 11, (3S,4S)-6-Acetyl-4-[(3-chloro-4-fluorobenzene)amido]-2,2-dimethyl-3,4-dihydro-2H-1-benzopyran-3-yl 2-[(2S)-2-amino-4-methylpentanamido]acetate hydrochloride]
solubility ([1]; aqueous buffer, pH 5.0): > 10 mg/mL
inhibition at 11 µM (hERG K+ channel): 34%

SMILES: CC(=O)c1ccc2c(c1)[C@H](NC(=O)c1ccc(F)c(Cl)c1)[C@H](OC(=O)CNC(=O)[C@@H]1CCCN1)C(C)(C)O2 [Example 10, (3S,4S)-6-Acetyl-4-[(3-chloro-4-fluorobenzene)amido]-2,2-dimethyl-3,4-dihydro-2H-1-benzopyran-3-yl 2-[(2S)-pyrrolidin-2-ylformamido]acetate]
solubility ([1]; pH 4.2, aqueous buffer): 0.5 mg/mL (≈ 916 µM)
inhibition at 11 µM (hERG K+ channel): 32%

SMILES: CC(=O)c1ccc2c(c1)[C@H](NC(=O)c1ccc(F)c(Cl)c1)[C@H](OC(=O)[C@H](C)N(C)C(=O)[C@@H](N)C(C)C)C(C)(C)O2.Cl [Example 29, 6-Acetyl-4-[(3-chloro-4-fluorobenzene)amido]-2,2-dimethyl-3,4-dihydro-2H-1-benzopyran-3-yl (2S)-2-[(2S)-2-amino-N,3-dimethylbutanamido]propanoate hydrochloride]
solubility ([1]; pH 5.3, aqueous buffer): > 10 mg/mL

SMILES: CC(=O)c1ccc2c(c1)[C@H](NC(=O)c1ccc(F)c(Cl)c1)[C@H](OC(=O)CCCN1CCOCC1)C(C)(C)O2.Cl [Example 17, (3S,4S)-6-Acetyl-4-[(3-chloro-4-fluorobenzene)amido]-2,2-dimethyl-3,4-dihydro-2H-1-benzopyran-3-yl 4-(morpholin-4-yl)butanoate hydrochloride]
solubility ([1]; pH 5.7, aqueous buffer): 1 mg/mL
inhibition at 11 µM (hERG K+ channel): 27%

SMILES: CC(=O)c1ccc2c(c1)[C@H](NC(=O)c1ccc(F)c(Cl)c1)[C@H](OC(=O)[C@H](C)NC(=O)[C@@H](N)CC(C)C)C(C)(C)O2.Cl [Example 21, 6-Acetyl-4-[(3-chloro-4-fluorobenzene)amido]-2,2-dimethyl-3,4-dihydro-2H-1-benzopyran-3-yl (2S)-2-[(2S)-2-amino-4-methylpentanamido]propanoate hydrochloride]
solubility ([1]; pH 5.2, aqueous buffer): > 10 mg/mL

SMILES: CC(=O)c1ccc2c(c1)[C@H](NC(=O)c1ccc(F)c(Cl)c1)[C@H](OC(=O)N[C@H](C(=O)O)C(C)C)C(C)(C)O2 [Example 8, (2S)-2-[({[(3S,4S)-6-Acetyl-4-[(3-chloro-4-fluorobenzene)amido]-2,2-dimethyl-3,4-dihydro-2H-1-benzopyran-3-yl]oxy}carbonyl)amino]-3-methylbutanoic acid]
% exposure of tonabersat after dosing the prodrugs of the invention via: Intravenous dosing (iv) [2]: <LLOQ
% exposure of tonabersat after dosing the prodrugs of the invention via: Oral dosing (po) [2]: <LLOQ
solubility ([1]; aqueous buffer, pH not given): < 1 mg/mL

SMILES: CC(=O)c1ccc2c(c1)[C@H](NC(=O)c1ccc(F)c(Cl)c1)[C@H](OC(=O)[C@@H](NC(=O)[C@@H](N)C(C)C)C(C)C)C(C)(C)O2.Cl [Example 15, (3S,4S)-6-Acetyl-4-[(3-chloro-4-fluorobenzene)amido]-2,2-dimethyl-3,4-dihydro-2H-1-benzopyran-3-yl (2S)-2-[(2S)-2-amino-3-methylbutanamido]-3-methylbutanoate hydrochloride]
solubility ([1]; pH 4.5, aqueous buffer): > 10 mg/mL
inhibition at 11 µM (hERG K+ channel): 21%

SMILES: CC(=O)c1ccc2c(c1)[C@H](NC(=O)c1ccc(F)c(Cl)c1)[C@H](OC(=O)[C@H](C)NC(=O)[C@@H](N)C(C)C)C(C)(C)O2.Cl [Example 20, (3S,4S)-6-Acetyl-4-[(3-chloro-4-fluorobenzene)amido]-2,2-dimethyl-3,4-dihydro-2H-1-benzopyran-3-yl (2S)-2-[(2S)-2-amino-3-methylbutanamido]propanoate hydrochloride]
solubility ([1]; pH 5.6, aqueous buffer): > 10 mg/mL

The next lines start with results.

solubility ([1]; aqueous buffer, pH not given): < 1 mg/mL
SMILES: CC(=O)c1ccc2c(c1)[C@H](NC(=O)c1ccc(F)c(Cl)c1)[C@H](OC(=O)OCC[N+](C)(C)C)C(C)(C)O2.[I-] [Example 2, (3S,4S)-6-Acetyl-4-[(3-chloro-4-fluorobenzene)amido]-2,2-dimethyl-3,4-dihydro-2H-1-benzopyran-3-yl 2-(trimethylazaniumyl)ethyl carbonate iodide]

solubility ([1]; aqueous buffer, pH 5.0): > 10 mg/mL
SMILES: CC[C@H](C)[C@H](N)C(=O)NCC(=O)O[C@H]1[C@@H](NC(=O)c2ccc(F)c(Cl)c2)c2cc(C(C)=O)ccc2OC1(C)C.Cl [Example 13, (3S,4S)-6-Acetyl-4-[(3-chloro-4-fluorobenzene)amido]-2,2-dimethyl-3,4-dihydro-2H-1-benzopyran-3-yl 2-[(2S,3S)-2-amino-3-methylpentanamido]acetate hydrochloride]
inhibition at 11 µM (hERG K+ channel): 2%

solubility ([1]; pH 5.5, aqueous buffer): > 10 mg/mL
SMILES: CC(=O)c1ccc2c(c1)[C@H](NC(=O)c1ccc(F)c(Cl)c1)[C@H](OC(=O)CNC(=O)[C@@H](N)C(C)C)C(C)(C)O2.Cl [Example 14, (3S,4S)-6-Acetyl-4-[(3-chloro-4-fluorobenzene)amido]-2,2-dimethyl-3,4-dihydro-2H-1-benzopyran-3-yl 2-[(2S)-2-amino-3-methylbutanamido]acetate hydrochloride]
inhibition at 11 µM (hERG K+ channel): 14%

solubility ([1]; pH 5.1, aqueous buffer): > 10 mg/mL
SMILES: CC(=O)c1ccc2c(c1)[C@H](NC(=O)c1ccc(F)c(Cl)c1)[C@H](OC(=O)CNC(=O)CN)C(C)(C)O2.Cl [Example 12, (3S,4S)-6-Acetyl-4-[(3-chloro-4-fluorobenzene)amido]-2,2-dimethyl-3,4-dihydro-2H-1-benzopyran-3-yl 2-(2-aminoacetamido)acetate hydrochloride]
inhibition at 11 µM (hERG K+ channel): 43%

solubility ([1]; pH 8.8, aqueous buffer): < 1 mg/mL
SMILES: CC(=O)c1ccc2c(c1)[C@H](NC(=O)c1ccc(F)c(Cl)c1)[C@H](OC(=O)NCC(=O)O)C(C)(C)O2 [Example 7, 2-[({[(3S,4S)-6-Acetyl-4-[(3-chloro-4-fluorobenzene)amido]-2,2-dimethyl-3,4-dihydro-2H-1-benzopyran-3-yl]oxy}carbonyl)amino]acetic acid]

solubility ([1]; aqueous buffer, pH not given): < 1 mg/mL
SMILES: CCN(CC)CCOC(=O)O[C@H]1[C@@H](NC(=O)c2ccc(F)c(Cl)c2)c2cc(C(C)=O)ccc2OC1(C)C [Example 3, (3S,4S)-6-Acetyl-4-[(3-chloro-4-fluorobenzene)amido]-2,2-dimethyl-3,4-dihydro-2H-1-benzopyran-3-yl 2-(diethylamino)ethyl carbonate]
inhibition at 11 µM (hERG K+ channel): 20%

From patent publication US20160016929A1, “PRO-DRUG COMPOUNDS” (PROXIMAGEN LIMITED, priority 2013, published 2016)
